Assay results from the NIST ThermoML archive (doi:10.1016/j.jct.2017.12.011).
“And” between values parts separate entries of the source, which are not always exact repeats. Identical values can stand only once. Numbers after ± are expanded uncertainties.

Settings: Pendant drop shape

Structure (SMILES): O [water]
- surface tension liquid-gas (271.2 K): 76.43 ± 1.8 mN/m and 76.39 ± 1.9 mN/m
- surface tension liquid-gas (274.2 K): 75.74 ± 1.8 mN/m and 75.89 ± 1.5 mN/m
- surface tension liquid-gas (276.2 K): 75.11 ± 1.5 mN/m and 75.34 ± 1.9 mN/m
- surface tension liquid-gas (278.2 K): 74.61 ± 2 mN/m and 74.98 ± 1.9 mN/m
- surface tension liquid-gas (280.2 K): 74.5 ± 1.4 mN/m and 74.21 ± 1.3 mN/m
